From ChEMBL document CHEMBL5260846, “Emerging targets and potential therapeutic agents in non-alcoholic fatty liver disease treatment” (Eur J Med Chem, 2020) come the findings set out here.

Test [1] addresses C-C chemokine receptor type 5 (Homo sapiens, UniProt P51681). In words: Antagonist at CCR5 (unknown origin) assessed as inhibitory constant.
In test [2] the test system is Human immunodeficiency virus 1. Put plainly: Antiviral activity against M tropic HIV-1 Ba-L infected in human HeLa-MAGI-CCR5 cells assessed as inhibition of viral replication. The test is classed as functional, organism-based. The following applies: Human immunodeficiency virus 1, Ba-L.
Test [3] concerns the target T1, Peroxisome proliferator-activated receptor alpha (Homo sapiens, UniProt Q07869).
T1 sequence (Q07869 whole entry): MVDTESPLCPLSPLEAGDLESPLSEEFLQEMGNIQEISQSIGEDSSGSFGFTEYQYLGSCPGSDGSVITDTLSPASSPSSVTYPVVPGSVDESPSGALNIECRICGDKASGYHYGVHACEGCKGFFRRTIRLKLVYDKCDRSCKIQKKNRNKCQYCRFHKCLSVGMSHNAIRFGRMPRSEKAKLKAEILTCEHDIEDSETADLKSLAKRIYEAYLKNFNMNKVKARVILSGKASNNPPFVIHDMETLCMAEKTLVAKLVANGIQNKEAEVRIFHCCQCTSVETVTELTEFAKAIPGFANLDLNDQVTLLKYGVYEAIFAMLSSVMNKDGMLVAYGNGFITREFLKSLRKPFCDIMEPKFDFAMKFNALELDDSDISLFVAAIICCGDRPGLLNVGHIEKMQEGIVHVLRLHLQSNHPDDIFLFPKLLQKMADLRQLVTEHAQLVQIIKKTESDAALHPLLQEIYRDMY
Put plainly: Agonist activity at PPARalpha in human HepG2 cells. The test is classed as cell-based.

In test [4] the target is T2, Peroxisome proliferator-activated receptor alpha (Mus musculus, UniProt P23204).
T2 sequence (P23204 whole entry): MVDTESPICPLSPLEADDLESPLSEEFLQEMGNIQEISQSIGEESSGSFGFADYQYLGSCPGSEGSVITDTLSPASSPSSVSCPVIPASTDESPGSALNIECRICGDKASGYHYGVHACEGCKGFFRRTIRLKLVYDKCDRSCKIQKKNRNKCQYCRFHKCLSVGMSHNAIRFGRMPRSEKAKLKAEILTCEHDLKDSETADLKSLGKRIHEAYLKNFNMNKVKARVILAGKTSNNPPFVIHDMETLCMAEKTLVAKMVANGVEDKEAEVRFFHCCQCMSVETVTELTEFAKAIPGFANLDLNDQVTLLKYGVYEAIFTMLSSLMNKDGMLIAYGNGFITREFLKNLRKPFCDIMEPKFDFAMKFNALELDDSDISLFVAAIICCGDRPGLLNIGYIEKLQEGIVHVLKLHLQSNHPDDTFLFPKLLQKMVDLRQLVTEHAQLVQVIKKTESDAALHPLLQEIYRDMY
Put plainly: Agonist activity at mouse PPARalpha.

In test [5] the target is T1, Peroxisome proliferator-activated receptor alpha. Put plainly: Binding affinity to PPARalpha (unknown origin).
Another test relates to Hepatocyte. Put plainly: Anti-fibrosis effect in CCl4 induced lipid peroxidation in rat hepatocytes by measuring MDA formation incubated for 1 hr by TBARS method. The test is classed as functional, cell-based.
The target of test [6] is T3, Peroxisome proliferator-activated receptor delta (Homo sapiens, UniProt Q03181).
T3 sequence (Q03181 whole entry): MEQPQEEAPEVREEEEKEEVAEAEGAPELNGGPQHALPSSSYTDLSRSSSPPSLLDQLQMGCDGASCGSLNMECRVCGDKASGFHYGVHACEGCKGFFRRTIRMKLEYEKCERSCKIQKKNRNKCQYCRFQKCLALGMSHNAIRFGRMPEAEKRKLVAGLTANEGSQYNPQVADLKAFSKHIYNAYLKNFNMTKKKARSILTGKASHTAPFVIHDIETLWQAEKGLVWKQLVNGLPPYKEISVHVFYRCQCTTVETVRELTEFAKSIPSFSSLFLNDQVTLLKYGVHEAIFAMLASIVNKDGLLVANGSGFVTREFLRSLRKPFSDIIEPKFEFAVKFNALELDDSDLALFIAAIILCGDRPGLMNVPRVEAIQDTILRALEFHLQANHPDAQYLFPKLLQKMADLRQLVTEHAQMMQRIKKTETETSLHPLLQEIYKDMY
In words: Agonist activity at PPARdelta (unknown origin).

Test [7] addresses T1, Peroxisome proliferator-activated receptor alpha. Put plainly: Agonist activity at PPARalpha (unknown origin).
Test [8] has the same target. In words: Agonist activity at PPARalpha (unknown origin) assessed as transcriptional activation.
Test [9] deals with T4, Peroxisome proliferator-activated receptor gamma (Homo sapiens, UniProt P37231).
T4 sequence (P37231 whole entry): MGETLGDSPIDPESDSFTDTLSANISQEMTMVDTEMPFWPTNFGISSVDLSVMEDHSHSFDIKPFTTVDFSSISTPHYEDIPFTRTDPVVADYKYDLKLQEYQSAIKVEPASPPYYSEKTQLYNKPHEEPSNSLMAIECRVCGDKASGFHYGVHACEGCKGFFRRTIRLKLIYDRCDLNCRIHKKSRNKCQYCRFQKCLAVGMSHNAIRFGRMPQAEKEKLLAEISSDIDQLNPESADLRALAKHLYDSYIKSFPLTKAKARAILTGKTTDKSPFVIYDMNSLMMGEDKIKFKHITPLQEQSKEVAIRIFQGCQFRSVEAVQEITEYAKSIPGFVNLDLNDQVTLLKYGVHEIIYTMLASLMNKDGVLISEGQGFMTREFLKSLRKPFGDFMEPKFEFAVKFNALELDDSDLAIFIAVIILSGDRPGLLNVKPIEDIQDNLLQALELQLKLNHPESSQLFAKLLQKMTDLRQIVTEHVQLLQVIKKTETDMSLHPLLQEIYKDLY
In words: Agonist activity at PPARgamma (unknown origin) assessed as transcriptional activation.

One may read the Ki as the dissociation constant of the complex between target and ligand, obtained from inhibition or displacement. One may read the EC50 as the concentration needed to bring the measured effect to its halfway point. What is called EC90 is the point of the concentration-response curve where the effect stands at 90%. Usually IC50 stands for the midpoint of a concentration-inhibition curve. A lower IC50 goes with inhibition by little substance.

SMILES strings stand for the structures.

C-C chemokine receptor type 5, sequence (P51681 whole entry): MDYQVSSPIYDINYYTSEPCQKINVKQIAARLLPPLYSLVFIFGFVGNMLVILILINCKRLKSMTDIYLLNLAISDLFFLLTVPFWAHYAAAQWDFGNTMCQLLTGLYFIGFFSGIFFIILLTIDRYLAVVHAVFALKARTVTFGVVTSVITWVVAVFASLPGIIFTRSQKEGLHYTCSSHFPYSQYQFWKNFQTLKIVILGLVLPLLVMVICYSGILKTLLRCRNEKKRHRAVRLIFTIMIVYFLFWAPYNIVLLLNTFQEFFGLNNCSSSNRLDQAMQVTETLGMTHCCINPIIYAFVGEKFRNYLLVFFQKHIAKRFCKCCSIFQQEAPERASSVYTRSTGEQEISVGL

For `Cc1ccc(-c2ccc3c(c2)C=C(C(=O)Nc2ccc(C[N+](C)(C)C4CCOCC4)cc2)CCC3)cc1`, the Ki in [1] stood at 0.0011 µM. For the same compound, in test [2], the EC50 stood at 0.0012 µM and the concentration for an effect of 90% (EC90) was determined as 0.0057 µM.

The compound `CCO[C@@H](Cc1ccc(OCCn2c(C)ccc2-c2ccc(SC)cc2)cc1)C(=O)O` [SAROGLITAZAR] showed an EC50 in [3] of 0.65 pM.

`CC(C)(Oc1ccc(CCNC(=O)c2ccc(Cl)cc2)cc1)C(=O)O` [BEZAFIBRATE] gave an EC50 in test [4] of 50 µM.

`COc1ccc(Oc2cc(N(C)CCOc3ccc(CC4SC(=O)NC4=O)cc3)ncn2)cc1` (configuration not stated) [LOBEGLITAZONE] yielded an EC50 in [5] of 20 µM.

For the compound `O=C(/C=C/c1ccc(O)c2c1[C@@H](C(=O)O[C@H](Cc1ccc(O)c(O)c1)C(=O)O)[C@H](c1ccc(O)c(O)c1)O2)O[C@H](Cc1ccc(O)c(O)c1)C(=O)O`, inhibition in the test on Hepatocyte was half-maximal at 2750 µM (IC50).

Consider `CCOC(=O)C(C)(C)Oc1ccc(Cl)cc1` [CLOFIBRATE], for which, in test [4], the concentration for a half-maximal effect (EC50) stood at 55 µM.

In [6], `CCCc1c(OCCCOc2ccc(OCC(=O)O)cc2)ccc(C(C)=O)c1O` showed an EC50 of 0.05 µM.

With `Cc1ccc(C)c(OCCCC(C)(C)C(=O)O)c1` [GEMFIBROZIL], the EC50 in [7] was found to be 15.2 µM.

For `CSc1ccc(C(=O)/C=C/c2cc(C)c(OC(C)(C)C(=O)O)c(C)c2)cc1` [ELAFIBRANOR], the concentration giving a half-maximal response (EC50) in test [8] was found to be 0.045 µM; in test [9], 0.175 µM.
